Test results: ChEMBL document CHEMBL3046956, “Photosynthetic Electron Transport Inhibitory Activity of 2-Aralkylamino-4-methyl-6-trifluoromethyl-1, 3, 5-triazine Derivatives” (J Pestic Sci, 1999)

assay: Potency index, ratio of pI50 for simazine to pI50 for test compound against photosynthetic electron transport in Spinacia oleracea (spinach) thylakoids using oxygen electrode by Boger method

Row | SMILES | Ratio
1 | Cc1nc(NCc2ccc([N+](=O)[O-])cc2)nc(C(F)(F)F)n1 | 10
2 | Cc1nc(NCc2ccc(Br)cc2)nc(C(F)(F)F)n1 | 10
3 | Cc1nc(NCc2ccc(C(F)(F)F)cc2)nc(C(F)(F)F)n1 | 10
4 | Cc1nc(NCc2ccc(Cl)cc2)nc(C(F)(F)F)n1 | 10
5 | Cc1nc(NCc2ccc(F)cc2)nc(C(F)(F)F)n1 | 10

assay: Inhibition of photosynthetic electron transport in Spinacia oleracea (spinach) thylakoids using oxygen electrode by Boger method

Row | SMILES | pI50
6 | Cc1nc(NCc2ccc(Cl)cc2)nc(C(F)(F)F)n1 | 6.98
7 | Cc1nc(NCc2ccccc2Cl)nc(C(F)(F)F)n1 | 5.95
